Reference: US10213413B2 (priority 2014, dated 2019)
Where two headings read alike, the source gives them in different places.

How the values were obtained:
[1] = target: T1, N-NTD (N N-terminal region, residues 31 to 252) (Human respiratory syncytial virus A, UniProt P03418); assay: NMR chemical shift perturbation titration (1H,15N-HSQC), dissociation constants; type: binding, respiratory syncytial virus (RSV); details: 50 μM 15N-labeled N-NTD, two-site fast exchange model, 1:1 stoichiometry
T1 construct: N N-terminal region (N-NTD, residues 31 to 252); made in house; host or cells: E. coli BL21(DE3)
T1 sequence (P03418 31-252): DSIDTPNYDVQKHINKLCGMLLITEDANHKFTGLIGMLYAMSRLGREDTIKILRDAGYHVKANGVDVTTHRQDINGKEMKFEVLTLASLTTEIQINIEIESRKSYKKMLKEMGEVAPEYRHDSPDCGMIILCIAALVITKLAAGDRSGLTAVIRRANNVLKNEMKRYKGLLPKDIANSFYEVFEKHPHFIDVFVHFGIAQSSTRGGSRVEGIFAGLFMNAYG
Description: N-NTD samples uniformly labeled with stable isotopes for NMR measurements were produced in minimal M9 medium supplemented with 1 g/L ^15NH4Cl and 3 g/L unlabeled or ^13C-glucose. The protocols were adapted from rich medium: an initial preculture of 15 mL in LB medium was used to inoculate a 500 mL M9 culture grown to saturation, and 500 mL of fresh M9 medium were added before induction. Purification was carried out as described above and followed by a final dialysis step to exchange the sample into NMR buffer (20 mM MES pH 6.5, 250 mM NaCl, 1.5 mM TCEP). A U-^13C, ^15N, 70%-^2H labeled N-NTD sample was prepared by starting from a 100 mL preculture in LB medium, used to inoculate 1 L of unlabeled M9. […]
Chemical shift perturbation (CSP) experiments were carried out with 50 μM U-^15N labeled N-NTD on a 700 MHz Bruker Avance III spectrometer equipped with a TXI probe by adding increasing amounts of M61, M68, M72, M76 and M81 from concentrated stock solutions (25, 10 or 5 mM) in ethanol. […] Dissociation constants were determined for a given residue, assuming a two-site fast exchange model with a 1:1 stoichiometry, by fitting the chemical shift difference (δ−δfree) as a function of molar ratios in Origin 7 software (OriginLab).
Combined ^1H and ^15N CSPs were calculated from: Δδ^1H^15N=√{square root over ((δ1H−δ1H^free)^2+(δ15N−δ15N^free)^2/100)}. […]

P-CTD/N-NTD interaction = target: T2, P-CTD/N-NTD interaction (Human respiratory syncytial virus A, UniProt P03418); assay: Surface plasmon resonance competition assay (N-NTD binding to captured GST-P-CTD); set-up: species or system respiratory syncytial virus (RSV); details: 25° C., 20 mM TrisHCl pH 8, 150 mM NaCl, N-NTD 20 μM; read-out: Ki (inhibition of P-CTD/N-NTD interaction, SPR)
T2 construct: N N-terminal region (N-NTD, residues 31 to 252); made in house; host or cells: E. coli BL21(DE3)
T2 sequence (P03418 31-252): as above
Description: The assays were carried out at 25° C. in a buffer 20 mM TrisHCl, pH 8, 150 mM NaCl.
A goat anti-GST antibody (Biacore GST Capture Kit) was covalently coupled to a CMS sensorchip, using a Biacore 2000 instrument and the Amine Coupling Kit (GE Healthcare), reaching an immobilization density of around 10000 resonance units (RU; 1RU≈1 pg.mm-2). This surface was used to capture tightly GST-fused P-CTD to a density of 1200-1300 RU, or GST (800 RU) as a control. N-NTD (20 μM), alone or mixed and equilibrated for over 2 hours with the different inhibitor candidates (concentration range: 5-750 μM), was then injected over the GST-P-CTD and GST surfaces for one minute at a flow rate of […]. After each injection, the interaction buffer was flowed on the surface until all the N-NTD molecules dissociated (taking advantage of the transient nature of the N-NTD/P-CTD interaction). At the end of the series, the surfaces were regenerated with a 2-min 10 mM glycine-HCl (pH 1.5) wash and two 1-min washes with 0.05% SDS and 20 mM NaOH. The real-time interaction profiles were double referenced using the Scrubber 2.0 software (BioLogic Software), that is both the signals from the reference surface (with GST captured on the anti-GST antibody) and from blank experiments using the compounds alone were subtracted. The steady-state SPR responses (Req) were plotted against the compound concentration C and fitted using the BIAevaluation 4.1 software (GE Healthcare), according to the following equation:
[formula] where is the concentration of N-NTD (20 μM) and R0 the steady-state SPR response for N-NTD alone, allowing to determine the inhibition constants Ki for each compound. Isothermal Titration Calorimetry
SPR signals are proportional to the molecular weight of the analytes and therefore, given the small molecular weight of selected compounds, direct binding between N-NTD and BPdC would have too small signals on the used instrument. Instead, the inventors resorted to indirect competition assays to assess the effect of BPdC on the interaction between surface-bound P-CTD and N-NTD. The inventors first characterized by SPR the specific interactions between P-CTD in fusion with GST (GST-P-CTD) and N-NTD. GST-P-CTD was immobilized on an anti-GST antibody surface and serial dilutions of N-NTD were injected. The interaction between the two domains was transient, with a very fast dissociation rate (koff>1 s^−1) and a Kd of 30 μM. Competition experiments were then performed with the BPdC compounds. […] Both compounds carried a specific Cl substituent in ortho on the benzyl ring, but addition of another Cl atom in para position, on M76, somewhat enhanced inhibition. […] The inhibitory properties of the compounds were directly related to their affinities for N-NTD with M72<M61<M68<M81<M76.

rHRSV-mCherry = type: cell-based, recombinant human RSV; details: 48 h, HEp-2 cells
Description: (§1) DMSO dilutions in the same range were also used as controls. HEp-2 cells (ATCC number CCL-23) were seeded at 5×10^4 cells per well in 96-well plates the day before. Infection was carried out with 500 pfu of rHRSV-mCherry in MEM without phenol red. 2 h after infection, the medium was changed to MEM with 2% fetal calf serum and without phenol red. Compound dilutions were pre-incubated with viral suspensions for 5 min at 37° C. before addition on cell monolayers in the 96-well plates.
Fluorescence, expressed in relative fluorescence units, was measured using a spectrofluorimeter (Tecan infinite M200PRO) with excitation and emission wavelengths of 580 and 620 nm, respectively. Non-infected HEp-2 cells were used a standard for fluorescence background level.

HEp-2 cells = assay: CellTiter-Glo Luminescent cell viability assay (cytotoxicity); type: cell-based; details: 48 h
Description: as §1, with “Compound M76b was solubilized at 10 mM in 100% v/v DMSO and further diluted in water to 1 mM, then serially diluted threefold in minimum essential medium (MEM) without phenol red (Gibco) to a final concentration of 5 nM. DMSO” for “DMSO”, “plates. After treatment with compound M76b in DMSO or with DMSO alone, plates were incubated at 37° C. and 5% CO2 for 48 h.” for “plates.”
Cytotoxicity was assayed with the CellTiter-Glo Luminescent cell viability assay (Promega) after 48 h of incubation with DMSO alone or threefold dilutions of compound M76 in DMSO from 1 mM to 12 μM.

N-NTD = target: T3, N-NTD (Human respiratory syncytial virus A, UniProt P03418); assay: Isothermal titration calorimetry; type: binding, respiratory syncytial virus (RSV); details: 18° C.; for Kd: 20 mM Tris-HCl pH 8, 150 mM NaCl, 5% Ethanol, 30 μM N-NTD, read-out: Kd (ITC); for ΔH (binding enthalpy, ITC) / −TΔS (entropic contribution, ITC): 1:1 interaction model
T3 construct: N N-terminal region (N-NTD, residues 31 to 252); made in house; host or cells: E. coli BL21(DE3)
T3 sequence (P03418 31-252): as above
Description: ITC experiments were performed using the high precision VP-ITC system (MicroCal, GE Healthcare) and quantified with the Origin7 software provided by the manufacturer. All molecules were dissolved in 20 mM Tris-HCl, pH 8, 150 mM NaCl, 5% Ethanol and the binding enthalpies were measured by injecting the M76 or M61 solutions at 1.5 mM into calorimetric cell containing 30 μM N-NTD solution. Titrations were performed at 18° C. with 7 μl injections of M76 or M61 ligands every 350s. Heat signals were corrected for the heats of dilution and normalized to the amount of compound injected. Binding stoichiometries, enthalpy values and equilibrium dissociation constants were determined by fitting the corrected data to a 1:1 interaction model using the Origin7 software (OriginLab).
In parallel, the inventors investigated the properties of binding abilities of the di-substituted M76- and unsubstituted M61 to N-NTD by ITC. The purified N-NTD domain was loaded into the calorimeter cell and titrated with the compounds.

Row | SMILES | Kd [1] | Ki (P-CTD/N-NTD interaction) | Kd (N-NTD) | ΔH (binding enthalpy, ITC) (N-NTD) | −TΔS (entropic contribution, ITC) (N-NTD) | also measured
1 | O=C(O)c1cc(C(=O)O)n(Cc2ccc(F)cc2)n1 [M72, 1-(4-fluoroBenzyl)-pyrazole-3,5-dicarboxylate] | 680 µM | 1660 ± 290 µM | – | – | – | –
2 | CC(=O)OCOC(=O)c1cc(C(=O)OCOC(C)=O)n(Cc2ccc(Cl)cc2Cl)n1 [M76b] | – | – | – | – | – | relative fluorescence (rHRSV-mCherry; 111 μM, relative to control without M76b and DMSO): 40%; relative fluorescence (rHRSV-mCherry; 333 μM, relative to control without M76b and DMSO): less than 20%; relative fluorescence (rHRSV-mCherry; concentrations under 12 μM): above 80%; cell survival (HEp-2 cells; 111 μM): more than 95%; cell survival (HEp-2 cells; 333 μM): 25%
3 | O=C(O)c1cc(C(=O)O)n(Cc2ccccc2Cl)n1 [M81, 1-(2-chloroBenzyl)-pyrazole-3,5-dicarboxylate] | – | 247 ± 39 µM | – | – | – | –
4 | O=C(O)c1cc(C(=O)O)n(Cc2ccc(Br)cc2)n1 [M68, 1-(4-bromoBenzyl)-pyrazole-3,5-dicarboxylate] | – | 610 ± 82 µM | – | – | – | –
5 | O=C(O)c1cc(C(=O)O)n(Cc2ccc(Cl)cc2Cl)n1 [M76, 1-(2,4-dichloroBenzyl)-pyrazole-3,5-dicarboxylate] | 20 µM | 155 ± 25 µM | 48 ± 8 µM | -11.0 ± 3.6 kcal/mol | 5.4 ± 3.8 kcal/mol | –
6 | O=C(O)c1cc(C(=O)O)n(Cc2ccccc2)n1 [M61, 1-(Benzyl)-pyrazole-3,5-dicarboxylate] | – | 893 ± 86 µM | 510 ± 170 µM | -6.42 ± 2.42 kcal/mol | 2.2 ± 1.8 kcal/mol | –
